Experimental data from patent US20240409864A1, “Apparatus and Methods for Generating and Analyzing Three-Dimensional Cellular Materials” (Agilent Technologies, Inc., priority 2021, published 2024).

Experiments:
Panc1 spheroids [1] = test: Mitochondrial stress test, oxygen consumption rate (Seahorse XF); assay type: cell-based; conditions: Panc1 spheroids assayed after 8 days; polished plate, 20 microliters Lipidure coating; FIG. 15
Description: (§3) A common test performed on the system described above is a mitochondrial stress test. In this assay a series of injections are delivered through the drug ports of the cartridge in order to measure the response of the biological sample to various compounds (oligomycin, FCCP, rotenone and antimycin). These compounds are preloaded into a drug reservoir (port) on the XF cartridge prior to execution of the assay. When the cartridge is inserted into the instrument it is coupled to a manifold which when activated by a solenoid valve, provides pneumatic pressure to the head space of the reservoir forcing the compound through a small orifice and into the well containing the biological sample.
First, Panc1/HepG2 cells were grown in the well plates generally contemplated by the present disclosure but with only a single concentric lip as well as commercially available plates, followed by the transfer of the spheroids cultured in the commercially available plates to the plates of the present disclosure. The experimental protocol was as follows: • 1. Add 50 ul of Lipidure solution (prepared in ETOH) to the plates. Leave overnight at 37 degrees C. or at 50 degrees C. for 1 hour for the ETOH to evaporate. • 2. Trypsinize the HepG2 with multiple washes of Mg—Ca free PBS to make single cells. Leave in incubator at 37 deg C. for 2-3 mins. • 3. […]

HepG2 spheroids = test: as above; assay type: cell-based; conditions: HepG2 spheroids assayed after 6 days, 50 microliters Lipidure coating
Description: as §3
The experimental protocol was as follows: • 1. Add 50 ul of Lipidure solution (prepared in ETOH) to the plates. Leave overnight at 37 degrees C. or at 50 degrees C. for 1 hour for the ETOH to evaporate. • 2. Trypsinize the HepG2 with multiple washes of Mg—Ca free PBS to make single cells. Leave in incubator at 37 deg C. for 2-3 mins. • 3. Transfer cells to centrifugal tube and add PBS to fill half the tube then count cells based on density prior to centrifugation. • 4. Centrifuge the cell suspension and resuspend the pellet in fresh medium. • 5. Add 10K cells per well with fresh growth medium (180 ul per well) • 6. Centrifuge, if necessary, at 1000 rpm for 2-3 minutes with low deceleration. Centrifugation helps the cells to come together, if needed. • 7. When desirable tight clusters are formed (3-5 days), proceed with the Seahorse XF assay. • 8. For HepG2, DMEM PH 7.4 media from Seahorse supplemented with glutamine, sodium pyruvate and glucose were used (same concentration as the growth medium). • 9. With a multiple channel, pull out about 150 microliters of spent medium and add 180 microliters of fresh Seahorse medium slowly sliding through the walls. • 10. Follow with 2-3 washes to dilute out the FBS from the wells. • 11. After every wash check if the spheroid is still in the center. The white spot of the spheroid is easily seen on dark lab counter tops. • 12. Follow known protocol for traditional oxygen consumption rate (OCR) assay based on the mitochondrial stress test described in detail above. • 13. Take before and after images to verify the spheroids remain centered throughout. • 14.
Further, and referring to FIGS. 16 and 17, the oxygen consumption rate was performed on wells 1-6 using the mitochondrial stress test described above using HepG2 spheroids generated and assayed after 6 days in a plate with the geometric configuration of the present disclosure.

C2C12 spheroids = C2C12 spheroids about 180 and 140 micrometers, final concentration 1 μM, BioFLOAT coating, no centrifugation
Description: (§1) Panc1, HepG2, and C2C12 cell lines were used to form spheroids in an apparatus with wells having the geometry shown at least in FIGS. 2, 3, and 4 of the present disclosure. The wells were coated with either Lipidure® or BioFLOAT® ultra low adhesion coatings according to manufacturer protocols, after which the cell lines were introduced to the well plates and spheroids were formed according to the following protocol: • Apply ULA coatings according to manufacturer's protocols • Use trypsin to detach cells of interest (C2C12, Panc1, or HepG2) and create a single cell suspension • Deactivate trypsin via addition of complete culture media • Perform a cell count • Centrifuge the cell suspension at 250 G for 5 minutes and resuspend the pellet in fresh medium at the required density. • Add 300-1500 cells per well with fresh growth medium to a final volume of 200 ul per well • Centrifuge, if necessary, at 250 G for 5 minutes with low deceleration. Centrifugation helps the cells to come together, if needed. • When desirable tight clusters are formed (typically 3-5 days), proceed with the Seahorse XF assay. • DMEM PH 7.4 media from Seahorse supplemented with glutamine, sodium pyruvate and glucose were used (same concentration as the growth medium). • With a multiple channel, pull out about 100 microliters of spent medium and add 100 microliters of fresh Seahorse medium slowly sliding through the walls. • Follow with 3-5 washes to dilute out the old media from the wells. • Perform desired Seahorse assay-Basal, Mito Stress Test, FCCP addition, or others.
(§2) Next, C2C12 and Panc1 cells were seeded in BioFLOAT® coated spheroid plates as contemplated by the present disclosure at two different concentrations. The cells were allowed to settle without centrifugation and form spheroids for two days. […] The largest cross-sectional diameter was measured to characterize the size of the spheroids.

Panc1 spheroids [2] = conditions: Panc1 spheroids about 325 and 250 micrometers, final concentration 1 μM, BioFLOAT coating, no centrifugation
Description: as §1, §2

Row | Compound | oxygen consumption rate response (Panc1 spheroids [1]) | oxygen consumption rate response (HepG2 spheroids; polished plate, FIG. 19) | oxygen consumption rate response (HepG2 spheroids; unpolished plate, FIG. 17) | oxygen consumption rate (OCR) after injection (C2C12 spheroids; FIG. 44) | extra cellular acidification rate (ECAR) after injection (C2C12 spheroids; FIG. 45) | oxygen consumption rate (OCR) after injection (Panc1 spheroids [2]; FIG. 42) | extra cellular acidification rate (ECAR) after injection (Panc1 spheroids [2]; FIG. 43)
1 | CC[C@H]1/C=C/C=C/C[C@@H](C)[C@H](O)[C@@](C)(O)C(=O)[C@@H](C)[C@H](O)[C@@H](C)C(=O)[C@@H](C)[C@H](O)[C@@H](C)/C=C/C(=O)O[C@@H]2[C@H](C)[C@H](CC1)O[C@]1(CC[C@H](C)[C@H](C[C@@H](C)O)O1)[C@H]2C [oligomycin] | did not show the dip on oxygen consumption | good response | good response |  |  |  | 
2 | FCCP | good response | good response | good response | increased | increased | increased | increased
